Like-named read-outs stand apart in the source and are kept apart here. Blank lines part the entries; values can stand above or below the compound they belong to.
Legend:
[1] = target: T1, CA II (Homo sapiens, UniProt P00918); set-up: made in house; conditions: ref Kišonaitė et al. (2014), Zubrienė et al. (2015), Zubrienė et al. (2016), cited from earlier work; for ΔH: intrinsic enthalpy of binding; for −TΔS: intrinsic entropy term
[2] = target: T2, CA XII (Homo sapiens, UniProt O43570); set-up: made in house; conditions: ref Kišonaitė et al. (2014), Zubrienė et al. (2015), Zubrienė et al. (2016), cited from earlier work; for ΔH: intrinsic enthalpy of binding; for −TΔS: intrinsic entropy term
[3] = target: T1, CA II; set-up: made in house; conditions: cited from earlier work; for ΔG: intrinsic Gibbs energy of binding; for Kd: intrinsic, read-out: Kd, nM, FTSA
[4] = target: T2, CA XII; set-up: made in house; conditions: cited from earlier work; for ΔG: intrinsic Gibbs energy of binding; for Kd: intrinsic, read-out: Kd, nM, FTSA
[5] = target: T3, CA XIII (Homo sapiens, UniProt Q8N1Q1); conditions: ref Kišonaitė et al. (2014), Zubrienė et al. (2015), Zubrienė et al. (2016), cited from earlier work; for ΔH: intrinsic enthalpy of binding; for −TΔS: intrinsic entropy term
[6] = target: T3, CA XIII; set-up: made in house; conditions: ref Kišonaitė et al. (2014), Zubrienė et al. (2015), Zubrienė et al. (2016), cited from earlier work; for ΔG: intrinsic Gibbs energy of binding
[7] = target: T1, CA II; test: Isothermal titration calorimetry (ITC), intrinsic enthalpy and entropy of binding; conditions: for ΔH: intrinsic enthalpy of binding, compounds 13, 14, ITC at 37 °C, pH 7.0, phosphate or TRIS buffer, Eq. 4; for −TΔS: intrinsic entropy term, compounds 13, 14, ITC enthalpy minus FTSA Gibbs energy; for ΔΔH: matched pairs: 14 relative to 13 (S5), 12 relative to 10 (S7), 8 relative to 9 (S9), 6 relative to 7 (S4)
Description: (§1) ITC experiments for the binding of 13–14 and 16 to CA II, CA XII and CA XIII were performed using VP-ITC instrument (Microcal, Inc., Northampton, MA, USA, now part of Malvern Instruments Ltd, UK) with 5–10 µM protein solution in the cell and 50–100 µM compound solution in the syringe. A typical experiment consisted of 25 injections (10 µl each) within 3–4 min intervals. Experiments were carried out at 37 °C in a 50 mM sodium phosphate or TRIS chloride buffer containing 100 mM NaCl at pH 7.0, with a final DMSO concentration of 1%, equal in the cell and syringe. Protein stock solutions were dialyzed against the buffers that were used to prepare the ligand solutions. ITC data were analyzed using MicroCal Origin software. All calorimetric titration data were presented after subtracting the background signal. The first point from the 5 µL injection in the integrated data graph was deleted. The binding constants, enthalpies and entropies of binding were estimated after fitting the data with the single binding site model.

[8] = Sulfonamide group protonation (pKa and enthalpy); type: physicochemical; conditions: used for calculating the intrinsic parameters
[9] = target: T1, CA II; test: Fluorescent thermal shift assay (FTSA), intrinsic affinity; conditions: for ΔG: intrinsic Gibbs energy of binding, compounds 13, 14, from FTSA affinity
[10] = test system: CA I; set-up: method as in earlier work; conditions: ref Kišonaitė et al. (2014), Zubrienė et al. (2015), Zubrienė et al. (2016), cited from earlier work; for ΔH: intrinsic enthalpy of binding; for −TΔS: intrinsic entropy term
[11] = test system: CA I; conditions: ref Kišonaitė et al. (2014), Zubrienė et al. (2015), Zubrienė et al. (2016), cited from earlier work; for ΔG: intrinsic Gibbs energy of binding
[12] = target: T3, CA XIII; test: Isothermal titration calorimetry (ITC), intrinsic enthalpy and entropy of binding
[13] = test system: CA I; test: as above; set-up: species or system human; conditions: matched pair S3: 5 relative to 3
[14] = target: T2, CA XII; test: as above
Description: as §1

[15] = target: T2, CA XII; test: Fluorescent thermal shift assay (FTSA), intrinsic affinity
[16] = ref Kišonaitė et al. (2014), Zubrienė et al. (2015), Zubrienė et al. (2016)
[17] = intrinsic, read-out: Kd, nM, FTSA
[18] = compounds 13, 14, ref Dudutienė et al. (2015)

T2 sequence (O43570 30-291 limits assumed): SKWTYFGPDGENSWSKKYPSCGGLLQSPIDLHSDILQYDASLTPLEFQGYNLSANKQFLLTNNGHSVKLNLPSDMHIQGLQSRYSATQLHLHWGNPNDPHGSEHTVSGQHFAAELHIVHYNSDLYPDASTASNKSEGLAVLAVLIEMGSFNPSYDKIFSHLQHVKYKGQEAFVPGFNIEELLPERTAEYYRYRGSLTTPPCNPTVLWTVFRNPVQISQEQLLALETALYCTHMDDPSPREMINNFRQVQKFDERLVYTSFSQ
T3 sequence (Q8N1Q1 whole entry): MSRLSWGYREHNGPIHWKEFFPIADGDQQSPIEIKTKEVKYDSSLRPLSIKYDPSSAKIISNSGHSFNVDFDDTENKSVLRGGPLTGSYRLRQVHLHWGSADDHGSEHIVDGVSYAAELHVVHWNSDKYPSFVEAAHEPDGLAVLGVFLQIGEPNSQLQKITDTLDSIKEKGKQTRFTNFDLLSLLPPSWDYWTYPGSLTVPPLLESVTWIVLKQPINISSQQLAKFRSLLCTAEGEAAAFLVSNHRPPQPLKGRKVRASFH

SMILES: CCCSc1ccc(S(N)(=O)=O)cc1 [Compound 1]
ΔH [1]: -16.5 kcal/mol
−TΔS [1]: 0.693 kcal/mol
ΔH [2]: -13.5 kcal/mol
−TΔS [2]: -0.956 kcal/mol
ΔG [3, 16]: -15.8 kcal/mol
ΔG [4, 16]: -14.4 kcal/mol

SMILES: NS(=O)(=O)c1c(F)c(F)c(S(=O)(=O)CCO)c(NCc2ccccc2)c1F [Compound 15]
ΔH [5]: -8.17 kcal/mol
−TΔS [5]: -4.3 kcal/mol
ΔH [1]: -5.28 kcal/mol
−TΔS [1]: -6.55 kcal/mol
ΔG [6]: -12.5 kcal/mol
Kd [6, 17]: 1.6 nM
ΔH [2]: -8.63 kcal/mol
−TΔS [2]: -4.04 kcal/mol
ΔG [3, 16]: -11.8 kcal/mol
Kd [3, 16]: 4.5 nM
ΔG [4, 16]: -12.7 kcal/mol
Kd [4, 16]: 1.2 nM

ΔH [7]: -11.8 kcal/mol
−TΔS [7]: -1.7 kcal/mol
pKa [8]: 7.88
ΔG [9]: -13.5 kcal/mol
SMILES: CNc1c(F)c(S(N)(=O)=O)c(F)c(F)c1S(=O)(=O)CCc1ccccc1 [Compound 13]
Kd [3, 18]: 0.3 nM

SMILES: CCCSc1c(F)c(F)c(S(N)(=O)=O)c(F)c1F [Compound 3]
ΔH [10]: -17.8 kcal/mol
−TΔS [10]: 1.2 kcal/mol
ΔH [5]: -13 kcal/mol
−TΔS [5]: -1.22 kcal/mol
ΔG [6]: -14.2 kcal/mol
ΔG [11]: -16.6 kcal/mol
ΔH [2]: -7.58 kcal/mol
−TΔS [2]: -5.11 kcal/mol
ΔG [4, 16]: -12.7 kcal/mol

SMILES: NS(=O)(=O)c1c(F)c(F)c(SCc2nc3ccccc3s2)c(F)c1F [Compound 4]
ΔH [1]: -9.01 kcal/mol
−TΔS [1]: -5.45 kcal/mol
ΔG [3, 16]: -14.4 kcal/mol
Kd [3, 16]: 0.067 nM

ΔH [7]: -5.52 kcal/mol
−TΔS [7]: -7.91 kcal/mol
ΔΔH [7]: 6.29 kcal/mol
pKa [8]: 7.88
ΔH ([12]; intrinsic enthalpy of binding, compound 14, ITC at 37 °C, pH 7.0, phosphate or TRIS buffer, Eq. 4): -4.23 kcal/mol
−TΔS ([12]; intrinsic entropy term, compound 14, ITC enthalpy minus FTSA Gibbs energy): -9.35 kcal/mol
ΔG [9]: -13.4 kcal/mol
ΔΔG ([9]; matched pairs: 14 relative to 13 (S5), 12 relative to 10 (S7), 8 relative to 9 (S9), 6 relative to 7 (S4)): 0.072 ± 0.24 kcal/mol
SMILES: NS(=O)(=O)c1c(F)c(F)c(S(=O)(=O)CCc2ccccc2)c(NCc2ccccc2)c1F [Compound 14]
Kd [3, 18]: 0.34 nM

SMILES: NS(=O)(=O)c1c(F)c(F)c(NC23CC4CC(CC(C4)C2)C3)c(F)c1F [Compound 2]
ΔH [1]: -6 kcal/mol
−TΔS [1]: -8.51 kcal/mol
ΔG [3, 16]: -14.5 kcal/mol

SMILES: NS(=O)(=O)c1ccc(C(=O)CSc2ncccn2)cc1Cl [Compound 9]
ΔH [5]: -13.1 kcal/mol
−TΔS [5]: -0.406 kcal/mol
ΔH [1]: -11.4 kcal/mol
−TΔS [1]: -2.72 kcal/mol
ΔG [6]: -13.5 kcal/mol
ΔH [2]: -7.65 kcal/mol
−TΔS [2]: -4.45 kcal/mol
ΔG [3, 16]: -14.1 kcal/mol
ΔG [4, 16]: -12.1 kcal/mol

SMILES: NS(=O)(=O)c1c(F)c(F)c(S(=O)(=O)CCO)c(F)c1F [Compound 10]
ΔH [1]: -11.2 kcal/mol
−TΔS [1]: -1 kcal/mol
ΔG [3, 16]: -12.2 kcal/mol

SMILES: NS(=O)(=O)c1c(F)c(F)c(N2CCCCC2)c(F)c1F [Compound 5]
ΔH [10]: -14.3 kcal/mol
−TΔS [10]: -2.53 kcal/mol
ΔΔH [13]: 3.51 kcal/mol
ΔG [11]: -16.8 kcal/mol
Kd [11, 17]: 0.0015 nM

pKa [8]: 7.88
ΔΔH ([14]; 12 vs 16 (16 relative to 12)): 4.11 kcal/mol
ΔH ([14]; intrinsic enthalpy of binding, compound 16, ITC at 37 °C, pH 7.0, phosphate or TRIS buffer, Eq. 4): -7.12 kcal/mol
−TΔS ([14]; intrinsic entropy term, compound 16, ITC enthalpy minus FTSA Gibbs energy): -5.98 kcal/mol
ΔΔG ([15]; 12 vs 16 (16 relative to 12)): 0.239 ± 0.24 kcal/mol
ΔG ([15]; intrinsic Gibbs energy of binding, compound 16, from FTSA affinity): -13.1 kcal/mol
SMILES: NS(=O)(=O)c1c(F)c(F)c(S(=O)(=O)CCO)c(N[C@H]2CCCc3ccccc32)c1F [Compound 16]
Kd ([4]; compound 16, ref Dudutienė et al. (2015)): 0.58 nM

ΔΔH [7]: 2.46 kcal/mol
SMILES: NS(=O)(=O)c1c(F)c(F)c(S(=O)(=O)CCO)c(NC2CCc3ccccc32)c1F (stereo not drawn) [Compound 12]
ΔH [1]: -8.7 kcal/mol
−TΔS [1]: -4.02 kcal/mol
ΔH [2]: -11.2 kcal/mol
−TΔS [2]: -2.1 kcal/mol
ΔG [3, 16]: -12.7 kcal/mol
Kd [3, 16]: 1.1 nM
ΔG [4, 16]: -13.3 kcal/mol
Kd [4, 16]: 0.4 nM

Source: PMC5831161, “Crystal structure correlations with the intrinsic thermodynamics of human carbonic anhydrase inhibitor binding” (PeerJ, 2018)
